From paper PMC12648313, “Enhancing the Efficacy, Utility, and Throughput of the Transcription Block Survival Peptide Library Screening Platform” (JACS Au, 2025) come the findings set out here.

Experiment [1] addresses T1, ATF2 (Homo sapiens, UniProt P15336).
T1 construct: human ATF2 bZIP domain spans from Asp352 to Gln410; made in house; host or cells: chemical synthesis (Fmoc solid-phase peptide synthesis), no expression host
T1 sequence (P15336 352-410): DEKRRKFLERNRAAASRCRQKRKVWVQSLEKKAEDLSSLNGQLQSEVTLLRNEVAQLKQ
The experiment in a line: Circular dichroism spectra. The format is binding. Particulars: pH 7.4. The text has this:
(§1) removed before peptide concentration determination.
(§2) Peptide samples were suspended in 20
On the technique in general: Circular dichroism is widely used to follow secondary structure.

For a further experiment, the system named is ATF2 bZIP-CRE DNA. The experiment in a line: TBS peptide library screening, competition selection. The experiment is classed as cell-based, human ATF2 bZIP, in E. coli BL21-Gold. Particulars: 11.3-million-member library; nine rounds of selection; 9xCRE mDHFR; selective M9, 37 °C. The text has this:
This validates the new TBS design for the introduction of a transcriptional block and for the ability of antagonist peptides to restore bacterial growth in the CRE/CREB systems. We next constructed an 11.3-million-member peptide library to identify antagonists of ATF2, representing the first such effort to target this TF. This library design includes an N-terminal acidic domain, developed by Vinson and coworkers to engage bZIP DNA-binding domains (DBDs), followed by a semirandomized LZ region. Canonical coiled coil heptad repeat e and g positions were semirandomized to include glu, gln or lys options, with two exceptions to increase library diversity: e7 (ile, asn, asp or val) and g8 (leu, gln, glu or val). The a positions were randomized to select from leu, ile or val, to optimize hydrophobic packing in the coiled coil core, except a6 which also included asn or asp to investigate potential core polar interactions. The d positions were fixed as leu to promote formation of a desired parallel, dimeric coiled coil. […]
colonies: E = […] where E is the percentage of the library missing, m is the number of colonies collected and n is the library size. Library DNA quality was assessed by sequencing both the DNA pool and a number of single colonies to show degenerate codons in the correct positions in the pool and to show a diversity of library members from single […]

The target of another experiment is T2, cJun-TRE complex (Homo sapiens, UniProt P05412).
T2 construct: In the case of the CREB1 and cJun bZIP domains
The experiment in a line: FP antagonism assay cJun-TRE. The format is biochemical.

The target of experiment [2] is T1, ATF2. The experiment in a line: CD thermal denaturation, ATF2/ATF2W mixture. The experiment is classed as binding.
From the text: as §1, §2

For another experiment, the system named is FAM-CRE DNA. The experiment in a line: FP binding of ATF2W to CRE DNA. The settings on record: ATF2W 9 nM-10 μM, FAM-CRE DNA 10 nM, up to 1000x excess. As to the method:
as §1, §2
Post-melt scans at 20°C confirmed the
Sequential 2 µL injections of ATF2W (50 µM)
Data from a control experiment whereby […]
errors are given as one standard deviation.
Fluorescence polarisation: Fluorescence polarisation was measured in a CLARIOstar […]
chloride, 5 mM MgCl2, 10 mM TCEP, pH 7.4 buffer. Palindromic FAM-CRE DNA oligo was […]
purchased from Merck: 5’[6FAM]- […]. 200 µM of the oligo was […]
prepared in water and then annealed by heating to 95°C for 10 minutes before cooling slowly to room temperature to give a 100 µM duplex stock. Samples containing 10 nM FAM-CRE and a serial dilution of ATF2 (12 nM-10 µM) were prepared and incubated at room temperature for 1 hour before transferring to the assay plate for measurement. Data were fit to a one site binding model. For antagonism experiments, the ATF2 concentration required for 80% response was selected. Samples containing 10 nM FAM-TRE, 625 nM ATF2 and a serial dilution of ATF2W (29 nM-12 µM) were prepared and incubated at room temperature for 2 hours before transferring to the assay plate for measurement. CREB1/CRE, cJun/TRE and DLX5/H-box DNA antagonism were determined by the equivalent experiments, using the FAM-CRE oligo above; FAM-TRE DNA oligoes: 5’-[6FAM]-[…], 5’- […]
[6FAM]-[…]; and palindromic FAM-H-Box oligo: 5’-[6FAM]- […]

“Ac-LEQQLEELAQENEELEKEAAELQQQIARLKNEVAKLENENKTLDREIKALQREYSHKSD-NH2 [ATF2W]”: the “increase in helicity upon mixing, relative to the average” value at ATF2 [1] (1:1 mixture with ATF2 (5 μM each) vs average of individual components (10 μM each), 20 mM potassium phosphate, 150 mM potassium fluoride, 10 mM TCEP.HCl, 222 nm) is given as 32%. The “222/208 ratio of heterodimer spectrum” value on ATF2 [1] (1:1 mixture with ATF2 (5 μM each)) is on record as 0.8. In addition, in the experiment on ATF2 bZIP-CRE DNA, the “outcome of TBS selection” value is “single dominant hit”. At cJun-TRE complex (FP IC50, cJun-TRE vs ATF2-CRE), the “fold selectivity for ATF2 over cJun” value was ~3 -fold. Moreover, the IC50 (usually the concentration at which inhibition is half-maximal) on cJun-TRE complex (FP, FAM-TRE DNA, equivalent experiment, pH 7.4) is 1.85 ± 0.213 µM. Further, at ATF2 [2] (heterodimeric ATF2/ATF2W sample vs ATF2W alone), the “ΔTm relative to ATF2W alone” value amounted to 18 °C. On ATF2 [2] (heterodimeric ATF2/ATF2W sample, 222 nm, 1 to 95 °C, pH 7.4, 10 mM TCEP.HCl, two-state model), the midpoint of thermal melting (Tm) (in general, the temperature at the midpoint of the melting transition) was determined as 55 °C. In addition, in the experiment with FAM-CRE DNA, the “interaction with CRE DNA” value was “does not interact with CRE DNA”.
